The record followed here is patent publication US20090162911A1 (priority 2007, published 2009).

Experiment [1] relates to acrB transposon mutant line DPD1852. Format: cell-based, E. coli. To be noted: acrB mutation, 18 hr exposure, FIG. 7. Here is the method:
Growth of the acrB transposon mutant line, DPD1852 (in Example 2), and the parental strain EC100 were compared in the presence of different butanols. Cultures were grown in LB medium at 37° C. to mid-logarithmic phase and then 200 μl was put into microtiter wells of a Bioscreen device that monitors optical density as a function of time. Triplicate wells contained a culture challenged with a specified concentration of a compound. For 2- and isobutanol the concentrations tested were 0, 0.8, 1.2, 1.4, and 1.6% weight percent. For 1-butanol the concentrations were 0, 0.2, 0.3, 0.4, and 0.6% w/v. For 2-butanone (MEK, methylethylketone) the concentrations were 0, 2.5, 3, 3.5 and 4% w/v.

The next experiment concerns E. coli strain EC100. The conditions noted are these: EC100 on solidified LB.
Experiment [2] deals with acrB transposition mutant strain DPD1852. The conditions noted are these: LB with 0.2%, 0.3%, 0.4% or 0.6% 1-butanol (w/v), FIG. 3. Here is the method: Overnight triplicate cultures of each strain were grown and diluted (1:10) into either LB or LB freshly supplemented with 0.2%, 0.3%. 0.4% or 0.6% 1-butanol (w/v). The growth of each culture was followed for approximately 18 hours.
An additional kinetic growth study was performed as described above.

Experiment [3] has as its system wild type control BW25113. The conditions noted are these: wild type cells, 0.4 and 0.6% 1-butanol, 18 hr, FIG. 6. As to the method:
(§1) Shake flask experiments were performed on the acrB rpoZ::kan constructed double mutant line DPD1899, as well as the acrB deletion line DPD1876, the rpoZ::kan line JW3624, and the wild type control BW25113 line. Cultures were grown in LB medium containing 0%, 0.4% or 0.6% 1-butanol in shake flasks. The experiments were performed by inoculating 100 ml of medium in a 250 ml plastic flask with 2 ml of an overnight culture grown from a single colony grown at 37° C. and incubating with shaking for approximately two doubling times (1 hour), to an OD600 between 0.2 and 0.3. Each culture was split into […] in plastic screw top 125 ml flasks and the cultures were maintained at 37° C. in a shaking water bath at 200 rpm. The OD600 was monitored at 0, 30, 90, 120 190, and 260 minutes.
(§2) In the cultures above, a final time point was taken at 18 hr and used to calculate growth yield as a function of 1-butanol challenge. For each line grown in 0, 0.4% or 0.6% 1-butanol, the final 18 hour time point was divided by the no 1-butanol 18 hr time point.

In a further experiment the test system is rpoZ::kan line JW3624. To be noted: rpoZ mutant, 0.4 and 0.6% 1-butanol, 18 hr, FIG. 6. As to the method: as §1, §2
The test system of experiment [4] is acrB deletion line DPD1876. To be noted: acrB mutant, 0.4 and 0.6% 1-butanol, 18 hr, FIG. 6. As to the method: as §1, §2
For experiment [5], the system named is acrB rpoZ::kan double mutant line DPD1899. The conditions noted are these: 0.4 and 0.6% 1-butanol, 18 hr, FIG. 6. As to the method:
as §1, §2

Experiment [6] has as its system tolC transposon insertion mutant JW5503. As to the kind of experiment: Shake flask growth of tolC insertion mutant compared with parental strain. Format: cell-based, E. coli. As to the method: (§3) Strains of E. coli K12 EC100 having insertions in either the acrA or acrB coding regions, JW0452 and JW0451 respectively, were obtained from the Keio knockout collection described in Example 4. Growth of these strains was compared in the presence of 2-butanol and isobutanol in relation to the parental strain EC100. Overnight cultures were inoculated with a fresh colony and grown in LB at 37° C. with shaking. The next day the culture was diluted 1:100 into 100 ml of fresh LB in a 1 liter flask and grown for approximately 2 hours. The culture was split into 20 ml aliquots in 125 ml plastic screw top flasks. One culture remained unaltered serving as the no add control, and various concentrations of either 2-butanol or isobutanol were added to the remaining flasks. Absorbance (OD600) was monitored over time. Fractional growth yields were determined after 3 hr of exposure and percent improvement was calculated by subtracting the […] and multiplying by 100.
In addition, a to/C transposon insertion mutant of the Keio collection, JW5503, was also assayed.

Experiment [7] concerns acrB insertion strain JW0451. Format: cell-based, E. coli. The conditions noted are these: for improved growth over the parental strain: acrB modified strain, 3 hr exposure, LB 37° C.; for tolerance of mutant relative to parent strain: acrB mutant JW0451, FIG. 8. As to the method: as §3
Experiment [8] has as its system acrA insertion strain JW0452. Format: cell-based, E. coli. To be noted: for improved growth over the parental strain: acrA modified strain, 3 hr exposure, LB 37° C.; for tolerance of mutant relative to parent strain: acrA mutant JW0452, FIG. 8. Here is the method:
as §3

Like-named read-outs stand apart in the source and are kept apart here.

Experimental for E. coli strain EC100: LB agar media supplemented with butanol was prepared fresh one day before innoculating at an appropriate volume and cooled for 2 hours in a 50° C. water bath. LB agar plates supplemented with butanol were prepared by dispensing 67 mls of melted agar, using a peristaltic pump and sterile Nalgene tubing, into sterile Omni trays with lids (Nunc mfg no. 242811). […] The plates were allowed to cool and set for approximately an hour before they were stored overnight in closed anaerobic chambers at room temperature in the chemical/biological hood. The next morning, the chambers harboring the plates were opened and allowed to air dry for approximately 1 hour before using.
Plates were incubated in a closed chamber at 37° C. for 1 day. The number of colonies arising and their sizes were scored. […] Butanol concentrations of 0.4% and 0.6% were chosen to screen for tolerance.

Turning to `CCCCO` [1-butanol], the “tolerance (growth improvement over parental EC100)” value in experiment [1] is given as “improved the tolerance”. The colony size result in the experiment on E. coli strain EC100 (0.6% 1-butanol, 37° C., 1 day) is “only pinpoint colonies”. For the same compound, the “concentration with no colony formation after overnight incubation” value in the experiment with E. coli strain EC100 (37° C.) was ≥ 0.7 % (w/v). Moreover, the “concentration from which colonies were progressively smaller” value in the experiment on E. coli strain EC100 (closed chamber, 37° C., 1 day) is reported as no less than 0.2%. In addition, in the experiment on E. coli strain EC100 (range of 0 to 0.6% 1-butanol), the “titer (number of colonies arising)” value is “No change in titer”. Also, in experiment [2], the “tolerance in terms of growth rate relative to wild type EC100” value is “more tolerant to all of the concentrations of 1-butanol tested than the wild type strain”. In addition, in experiment [3], the “sensitivity to growth inhibition (fractional growth)” value is listed as “most sensitive to growth inhibition”. For the same compound, the “growth yield (fractional growth)” value in the experiment on rpoZ::kan line JW3624 is recorded as “higher growth yields than wild type”; in experiment [4], “higher growth yields than wild type”; in [5] it was “even higher growth yield”.

For the compound `CCC(C)O` (stereo not drawn) [2-butanol], in experiment [1], the “tolerance (growth improvement over parental EC100)” value is on record as “improved the tolerance”. The “growth response relative to parental strain” value in experiment [6] is “indistinguishable from the parental strain”. Moreover, the “improved growth over the parental strain” value in [7] (0.6% of the compound) is listed as “about 24%”; in experiment [7] (0.8% of the compound) it was “about 12%”; in experiment [8] (0.6% of the compound), “about 12%”; in [8] (0.8% of the compound), “about 5%”. Besides, the “tolerance of mutant relative to parent strain” value in [7] and in experiment [8] was “more tolerant” each time.

Take `CCC(C)=O` [MEK, 2-butanone]: the “tolerance (growth improvement over parental EC100)” value in experiment [1] was “improved the tolerance”.

Regarding `CC(C)CO` [isobutanol], in experiment [1], the “tolerance (growth improvement over parental EC100)” value is “improved the tolerance”. Besides, in experiment [6], the “growth response relative to parental strain” value is listed as “indistinguishable from the parental strain”. Further, the “improved growth over the parental strain” value in [7] (0.4% of the compound) was “about 20%”; in [7] (0.6% of the compound), “about 2.5%”; in [8] (0.4% of the compound), “about 18%”; in [8] (0.6% of the compound) it was “about 3.5%”. Moreover, the “tolerance of mutant relative to parent strain” value in experiment [7] and in experiment [8] was “more tolerant” each time.
